According to paper PMC11279629, “Identification of Dihydropyrazolo[1,5-a]pyrazin-4(5H)-ones as Cyclic Products of β-Amidomethyl Vinyl Sulfone Alphavirus Cysteine Protease Inhibitors” (Pharmaceuticals, 2024):
Counter-ions that a name gives are not always drawn. Like-named read-outs stand apart in the source and are kept apart here.

How the values were obtained:
GSH capture assay = type: physicochemical; conditions: GSH (100×), phosphate buffer pH 7.4, 30 °C
[1] = Pharmacokinetics in mice, 10 mg/kg i.v.; type: in vivo, Male CD1 mice; conditions: for half-life: plasma, 10 mg/kg
Description: Although vinyl sulfones have been used as covalent warheads for inhibition of a wide range of cysteine proteases, there are relatively few reports of their use in vivo [14].
Blood samples were centrifuged at 4000× g for 5 min at 4 °C to obtain plasma. The plasma samples from each time point were pooled and then analyzed by LCMS/MS. The PK parameters were estimated by a non-compartmental model using WinNonlin 8.3.

[2] = Storage stability as solid or 10 mM DMSO stock solution
VEEV = conditions: read-out: VEEV EC50 (alphavirus replication); cited from earlier work
VEEV nsP2 protease = conditions: cited from earlier work

In the case of CS(=O)(=O)CC1CNC(=O)c2cc(NS(=O)(=O)c3ccccc3)nn21 (stereo not shown) [Compound 8, N-(7-((methylsulfonyl)methyl)-4-oxo-4,5,6,7-tetrahydropyrazolo[1,5-a]pyrazin-2-yl)benzenesulfonamide], the “GSH-Adduct Formation (%)” value (GSH capture assay; 8 h) is reported as 3% and the “GSH-Adduct Formation (%)” value (GSH capture assay; 24 h) is reported as 6%.
With CCOc1ccccc1-c1cc2n(n1)C(CS(C)(=O)=O)CNC2=O (stereo not shown) [Compound 2, 2-(2-ethoxyphenyl)-7-((methylsulfonyl)methyl)-6,7-dihydropyrazolo[1,5-a]pyrazin-4(5H)-one] the “Plasma exposure relative to 1” value [1] was 4 fold, the AUC(0-t) ([1]; male, CD1, mouse, iv, pooled plasma) was 3800 ng·h/mL and the half-life ([1]; male, CD1, mouse, iv, pooled plasma, read-out: T1/2 (converted)) was 30.6 min. For the same compound, the half-life ([1]; male, CD1, mouse, iv, read-out: i.v. half-life) was roughly 30 min, the Clobs ([1]; pooled plasma) was 44 mL/min/kg and the Vssobs ([1]; pooled plasma) was 0.32 L/kg. For the same compound, the “GSH-Adduct Formation (%)” value (GSH capture assay; 8 h) was 0% and the Stability upon storage [2] was “stable”.
In the case of C[C@@H]1CC(C)(C)Nc2c(C(=O)NC/C=C/S(C)(=O)=O)cccc21 [Compound #11], the EC50 (VEEV) is listed as 1400 nM and the “VEEV nsP2 protease activity inhibition” value (VEEV nsP2 protease) is listed as “micromolar inhibitor”.
CS(=O)(=O)CC1CNC(=O)c2cc(NS(=O)(=O)c3ccccc3)nn21 (stereo not shown) (as salt: TFA) [Compound 8, N-(7-((methylsulfonyl)methyl)-4-oxo-4,5,6,7-tetrahydropyrazolo[1,5-a]pyrazin-2-yl)benzenesulfonamide] showed a melting point of 222 °C.
